Measurements published in patent US11578084B2, “Condensed ring compounds having dopamine D3 receptor antagonistic effect” (Shionogi & Co., Ltd., priority 2018, dated 2023).

Key:
[1] = molecular target: human recombinant dopamine D3 receptor (Homo sapiens (Human), UniProt P35462); assay: Test of binding inhibition for dopamine D3 receptor ([3H]-Methylspiperone SPA); settings: Jump-In HEK cell membranes, 2 nM [3H]-Methylspiperone, 120 min at 25° C.; read-out: hD3_Ki
Summary of the method: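 SPA radioligand binding on Jump-In HEK membranes expressing human D3 receptor (4 µg/well) with 2 nM [3H]-methylspiperone (final), incubated 120 min at 25 °C. Non-specific binding defined with 10 µM butaclamol. Percent inhibition computed against total and non-specific binding; Ki from dose-response curves.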

[2] = molecular target: human recombinant dopamine D2 receptor (Homo sapiens (Human), UniProt P14416); assay: Test of binding inhibition for dopamine D2 receptor ([3H]-Methylspiperone SPA); settings: Jump-In HEK cell membranes, 1.2 nM [3H]-Methylspiperone, 120 min at 25° C.; read-out: hD2_Ki
Sequence of human recombinant dopamine D2 receptor (P14416 whole entry): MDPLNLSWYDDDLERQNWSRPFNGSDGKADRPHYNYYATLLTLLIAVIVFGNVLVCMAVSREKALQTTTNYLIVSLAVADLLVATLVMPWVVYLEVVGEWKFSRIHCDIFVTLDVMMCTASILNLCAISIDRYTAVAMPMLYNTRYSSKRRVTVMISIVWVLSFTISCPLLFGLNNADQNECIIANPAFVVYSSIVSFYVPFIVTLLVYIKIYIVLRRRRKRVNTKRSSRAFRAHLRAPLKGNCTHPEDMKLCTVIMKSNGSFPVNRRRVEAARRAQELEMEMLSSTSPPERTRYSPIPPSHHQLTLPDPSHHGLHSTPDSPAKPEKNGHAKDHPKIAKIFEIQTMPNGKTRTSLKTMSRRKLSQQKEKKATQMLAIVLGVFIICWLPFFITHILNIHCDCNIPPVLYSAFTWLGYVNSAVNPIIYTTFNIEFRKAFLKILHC
Summary of the method: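 Scintillation proximity competition binding of [3H]-Methylspiperone to Jump-In HEK membranes expressing human D2 (2 μg protein/well) on WGA SPA beads (0.2 mg/well), 120 min at 25° C.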

[3] = molecular target: hERG channel (IKr) (Homo sapiens (Human), UniProt Q12809); assay: hERG test (whole cell patch clamp, IKr); type: cell-based; settings: human, CHO cells expressing hERG channel, pH 7.4, 3 μM, tail peak current
Sequence of hERG channel (IKr) (Q12809 whole entry): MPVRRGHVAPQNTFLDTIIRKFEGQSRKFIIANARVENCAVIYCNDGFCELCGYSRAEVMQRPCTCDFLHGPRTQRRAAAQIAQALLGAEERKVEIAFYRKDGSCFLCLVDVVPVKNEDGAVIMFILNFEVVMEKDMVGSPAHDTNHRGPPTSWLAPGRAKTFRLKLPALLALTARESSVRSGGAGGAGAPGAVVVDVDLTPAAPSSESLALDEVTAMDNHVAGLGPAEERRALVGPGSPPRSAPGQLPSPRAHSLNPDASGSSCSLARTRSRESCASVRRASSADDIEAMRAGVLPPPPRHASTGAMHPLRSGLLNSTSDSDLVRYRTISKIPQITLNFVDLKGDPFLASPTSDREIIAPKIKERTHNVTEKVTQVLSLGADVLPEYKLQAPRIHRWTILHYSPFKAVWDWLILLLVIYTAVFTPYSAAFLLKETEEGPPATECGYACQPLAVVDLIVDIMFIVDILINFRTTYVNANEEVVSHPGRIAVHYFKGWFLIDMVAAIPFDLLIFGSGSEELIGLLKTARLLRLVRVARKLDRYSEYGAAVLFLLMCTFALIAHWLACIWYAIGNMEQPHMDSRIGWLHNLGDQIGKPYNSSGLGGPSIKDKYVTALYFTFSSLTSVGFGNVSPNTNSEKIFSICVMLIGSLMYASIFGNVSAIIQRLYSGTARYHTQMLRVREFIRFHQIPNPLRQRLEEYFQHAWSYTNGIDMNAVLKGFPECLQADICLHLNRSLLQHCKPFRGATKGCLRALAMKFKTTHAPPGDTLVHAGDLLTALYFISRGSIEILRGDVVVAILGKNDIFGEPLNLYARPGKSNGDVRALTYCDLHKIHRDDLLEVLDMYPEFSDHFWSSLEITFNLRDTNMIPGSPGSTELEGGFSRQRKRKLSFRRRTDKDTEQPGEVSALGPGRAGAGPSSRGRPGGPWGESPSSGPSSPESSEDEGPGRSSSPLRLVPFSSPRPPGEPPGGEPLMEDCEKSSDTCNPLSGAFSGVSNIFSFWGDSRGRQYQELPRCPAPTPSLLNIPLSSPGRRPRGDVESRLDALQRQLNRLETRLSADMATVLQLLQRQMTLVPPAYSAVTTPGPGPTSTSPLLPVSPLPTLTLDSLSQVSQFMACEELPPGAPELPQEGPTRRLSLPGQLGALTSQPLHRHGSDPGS
Source text: Test Example 10: hERG Test
For the purpose of assessing risk of an electrocardiogram QT interval prolongation of the compound of the present invention, effects of the compound of the present invention on delayed rectifier K+ current (IKr), which plays an important role in the ventricular repolarization process, was studied using CHO cells expressing human ether-a-go-go related gene (hERG) channel.
After a cell was retained at a membrane potential of −80 mV by whole cell patch clamp method using an automated patch clamp system (QPatch; Sophion Bioscience A/S) and gave a leak potential of −50 mV, IKr induced by depolarization pulse stimulation at +20 mV for 2 seconds and, further, repolarization pulse stimulation at −50 mV for 2 seconds, was recorded. After the generated current was stabilized, extracellular solution (NaCl: 145 mmol/L, KCl: 4 mmol/L, CaCl2): 2 mmol/L, MgCl2: 1 mmol/L, glucose: 10 mmol/L, HEPES (4-(2-hydroxyethyl)-1-piperazineethanesulfonic acid): 10 mmol/L, pH=7.4), in which the compound of the present invention had been dissolved at an objective concentration in the extracellular solution, was applied to the cell at room temperature for 7 minutes or more. From the recording IKr, an absolute value of the tail peak current was measured based on the current value at the resting membrane potential using analysis software (QPatch Assay software; Sophion Bioscience A/S). Further, the % inhibition of tail peak current for the compound of the present invention relative to the tail peak current after application of the solution (0.1% dimethyl sulfoxide solution) was calculated to assess influence of the compound of the present invention on IKr.

Sequence of human recombinant dopamine D3 receptor (P35462 whole entry): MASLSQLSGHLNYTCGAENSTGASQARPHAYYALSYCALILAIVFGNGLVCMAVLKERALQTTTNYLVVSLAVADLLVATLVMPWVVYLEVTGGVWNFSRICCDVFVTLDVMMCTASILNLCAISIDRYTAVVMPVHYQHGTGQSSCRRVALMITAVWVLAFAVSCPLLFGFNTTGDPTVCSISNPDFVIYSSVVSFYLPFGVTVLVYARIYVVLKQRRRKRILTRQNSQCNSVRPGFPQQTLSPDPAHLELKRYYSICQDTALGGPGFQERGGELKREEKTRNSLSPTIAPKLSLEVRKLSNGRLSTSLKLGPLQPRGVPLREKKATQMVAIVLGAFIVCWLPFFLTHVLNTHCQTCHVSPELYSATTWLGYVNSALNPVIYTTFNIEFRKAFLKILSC

Structure (SMILES)	Ki [1]	Ki [2]	inhibition at 3 µM [3]
Cc1ncccc1C(=O)N[C@H]1CC[C@](F)(CCN2CCc3nc(OCC(C)(F)F)sc3CC2)CC1 [Example I-042]	0.57 nM	1000 nM	10.8%
Cc1ncc(CC(=O)N[C@H]2CC[C@](F)(CCN3CCc4nc(OCC(C)(F)F)sc4CC3)CC2)o1 [Example I-043]	0.12 nM	970 nM	20.7%
Cc1ncc(OCC(=O)N[C@H]2CC[C@](F)(CCN3CCc4nc(OCC(C)(F)F)sc4CC3)CC2)cn1 [Example I-044]	0.14 nM	610 nM	23.7%
Cc1cnc(OCC(=O)N[C@H]2CC[C@H](CCN3CCc4sc(OCC(C)(F)F)nc4C3)CC2)cn1 [Example I-046]	0.34 nM	500 nM	14.3%
O=C(N[C@H]1CC[C@H](CCN2CCc3nc(OCC(F)(F)F)sc3CC2)CC1)c1cccnc1C(F)F [Example I-048]	0.048 nM	390 nM	3.52%
Cn1c(C(=O)N[C@H]2CC[C@H](CCN3CCc4nc(OCC(C)(F)F)sc4CC3)CC2)cccc1=O [Example I-056]	0.24 nM	490 nM	10.7%
Cn1cc(CC(=O)N[C@H]2CC[C@](F)(CCN3CCc4nc(OCC(F)F)sc4CC3)CC2)cn1 [Example I-059]	0.69 nM	> 1700 nM	6.72%
Cc1ncc(CC(=O)N[C@H]2CC[C@](F)(CCN3CCc4nc(OCC(F)F)sc4CC3)CC2)o1 [Example I-060]	0.59 nM	1400 nM	17.7%
Cn1cc2ccc(C(=O)N[C@H]3CC[C@H](CCN4CCc5nc(OCC(C)(F)F)sc5CC4)OC3)cc2n1 [Example I-066]	0.37 nM	770 nM	14.3%
Cc1ncc(OCC(=O)N[C@H]2CC[C@H](CCN3CCc4sc(C5CC(F)(F)C5)nc4C3)CC2)cn1 [Example I-069]	0.49 nM	670 nM	34.2%
Cc1nnc(CC(=O)N[C@H]2CC[C@H](CCN3CCc4sc(C5CC(F)(F)C5)nc4C3)CC2)s1 [Example I-071]	0.16 nM	450 nM	16.6%
Cc1nnc(CC(=O)N[C@H]2CC[C@](F)(CCN3CCc4nc(OCC(C)(F)F)sc4CC3)CC2)s1 [Example I-073]	0.29 nM	450 nM	25.9%
Cn1cc(/C=C/C(=O)N[C@H]2CC[C@](F)(CCN3CCc4nc(OCC(C)(F)F)sc4CC3)CC2)cn1 [Example I-074]	0.025 nM	63 nM	31%
Cn1cc(OCC(=O)N[C@H]2CC[C@](F)(CCN3CCc4nc(OCC(C)(F)F)sc4CC3)CC2)cn1 [Example I-075]	0.22 nM	240 nM	33.8%
CC[C@@H](C)Oc1ccc2c(n1)CCN(CC[C@H]1CC[C@H](NC(=O)c3cccc4nn(C)cc34)CC1)CC2 [Example I-076]	0.1 nM	> 1900 nM	13.4%
Cn1cc2c(C(=O)NN3CCC(CCN4CCc5sc(OCC(C)(F)F)nc5C4)CC3)cccc2n1 [Example I-077]	0.38 nM	> 1800 nM	4.33%
Cn1c(C(=O)NN2CCC(CCN3CCc4sc(OCC(F)(F)F)nc4C3)CC2)cccc1=O [Example I-080]	0.81 nM	2100 nM	5.68%
Cn1cc2c(C(=O)NN3CCC(CCN4CCc5sc(OCC(F)(F)F)nc5C4)CC3)ccc(F)c2n1 [Example I-081]	0.2 nM	640 nM	5.59%
Cc1ncc(/C=C/C(=O)N[C@H]2CC[C@H](CCN3CCc4nc(OC5CC(F)(F)C5)sc4CC3)CC2)cn1 [Example I-082]	0.086 nM	670 nM	11.1%
C[C@@H](Oc1nc2c(s1)CCN(CC[C@H]1CC[C@H](NC(=O)c3cccc4nn(C)cc34)CC1)CC2)C(F)(F)F [Example I-083]	0.16 nM	> 2200 nM	25.1%
